Experimental data reported in PMC4413193, “3-[4-(1H-Indol-3-yl)-1,3-thiazol-2-yl]-1H-pyrrolo[2,3-b]pyridines, Nortopsentin Analogues with Antiproliferative Activity” (Marine Drugs, 2015).
Entries after “also recorded” stand apart in the source; their conditions may differ.

Legend:
Assay type in all cases: cell-based
K-562 = experiment: NCI-60 in vitro tumor cell growth inhibition, K-562 (leukemia); conditions: Homo sapiens, K562, five concentration levels 10^−4–10^−8 M
Protocol: (§1) All the synthesized thiazoles 3a–k were evaluated by the National Cancer Institute (Bethesda MD) for cytotoxicity against the NCI-60 cell line panel using standard protocols. Initially, the selected derivatives 3c,d,g,h,j,k were tested at a single dose (10^−5 M) on the full panel of approximately 60 human tumor cell lines derived from 9 human cancer cell types, that have been grouped in disease sub-panels including leukemia, non-small-cell lung, colon, central nervous system (CNS), melanoma, ovarian, renal, prostate and breast cancers (data not shown). Compounds 3d and 3k were further selected for full evaluation at five concentration levels (10^−4–10^−8 M).
(§2) The antitumor activity of compounds 3d and 3k was given by three parameters for each cell line: GI50 (the molar concentration of the compound that inhibits 50% net cell growth), TGI (the molar concentration of the compound leading to total inhibition of net cell growth), and LC50 (the molar concentration of the compound that induces 50% net cell death). The average values of mean graph midpoint (MG_MID) were calculated for each of these parameters.

HL-60(TB) = experiment: NCI-60 in vitro tumor cell growth inhibition, HL-60(TB) (leukemia); conditions: Homo sapiens, five concentration levels 10^−4–10^−8 M
Protocol: as §1, §2

HT29 = experiment: NCI-60 in vitro tumor cell growth inhibition, HT29 (colon cancer); conditions: Homo sapiens, HT-29, five concentration levels
Protocol: as §1, §2

HCC-2998 = experiment: NCI-60 in vitro tumor cell growth inhibition, HCC-2998 (colon cancer); conditions: Homo sapiens, five concentration levels
Protocol: as §1, §2

KM12 = experiment: NCI-60 in vitro tumor cell growth inhibition, KM12 (colon cancer); conditions: Homo sapiens, five concentration levels
Protocol: as §1, §2

SN12C = experiment: NCI-60 in vitro tumor cell growth inhibition, SN12C (renal cancer); conditions: Homo sapiens, five concentration levels
Protocol: as §1, §2

SF-268 = experiment: NCI-60 in vitro tumor cell growth inhibition, SF-268 (CNS cancer); conditions: Homo sapiens, five concentration levels
Protocol: as §1, §2

OVCAR-3 = experiment: NCI-60 in vitro tumor cell growth inhibition, OVCAR-3 (ovarian cancer); conditions: Homo sapiens, five concentration levels
Protocol: as §1, §2

SF-539 = experiment: NCI-60 in vitro tumor cell growth inhibition, SF-539 (CNS cancer); conditions: Homo sapiens, five concentration levels
Protocol: as §1, §2

[1] = system: normal immortalized human liver cells (Chang); experiment: MTT viability assay, Chang liver cells; conditions: identical conditions to HepG2 (72 h, 0.1–10 μM)
Protocol: Cell growth inhibitory activity of compounds 3d and 3k was also investigated on human HepG2 hepatocarcinoma cells, a cell line not included in the NCI panel and of interest in the drug discovery because provided with a very active microsomal system for detoxification of xenobiotics. Monolayer cultures treated for 72 h with 0.1–10 μM concentrations of the compounds were examined by 3-(4,5-dimethylthiazol-2-yl)-2,5-diphenyltetrazolium bromide (MTT) assay for cell growth. […] Human cell lines of hepatoma HepG2 and Chang liver were purchased from American Type Culture Collection, Rockville, MD, USA. Cells were grown in RPMI supplemented with 2 mM L-glutamine, 10% FBS, 100 U/mL penicillin, 100 μg/mL streptomycin and 5 μg/mL gentamicin. HepG2 culture medium also contained 1.0 mM sodium pyruvate. Cells were maintained in log phase by seeding twice a week at a density of 3 × 10^8 cells/L in humidified 5% CO2 atmosphere, at 37 °C. In all experiments, cells were made quiescent through overnight incubation before the treatment with the compounds or vehicle alone (control cells). No differences were found between cells treated with DMSO 0.1% and untreated cells in terms of cell number and viability. […] Briefly, HepG2 and Chang cells were plated at 5 × 10^4 cells/well in 96-well plates containing 200 μL RPMI. […] The absorbance at 540 nm was measured in a microplate reader (Bio-RAD, Hercules, CA, USA). […]

MCF7 = experiment: NCI-60 in vitro tumor cell growth inhibition, MCF7 (breast cancer); conditions: Homo sapiens, five concentration levels
Protocol: as §1, §2

U251 = experiment: NCI-60 in vitro tumor cell growth inhibition, U251 (CNS cancer); conditions: Homo sapiens, U-251, five concentration levels
Protocol: as §1, §2

SW-620 = experiment: NCI-60 in vitro tumor cell growth inhibition, SW-620 (colon cancer); conditions: Homo sapiens, five concentration levels
Protocol: as §1, §2

UO-31 = experiment: NCI-60 in vitro tumor cell growth inhibition, UO-31 (renal cancer); conditions: Homo sapiens, five concentration levels
Protocol: as §1, §2

RXF393 = experiment: NCI-60 in vitro tumor cell growth inhibition, RXF393 (renal cancer); conditions: Homo sapiens, RXF 393, five concentration levels
Protocol: as §1, §2

ACHN = experiment: NCI-60 in vitro tumor cell growth inhibition, ACHN (renal cancer); conditions: Homo sapiens, five concentration levels
Protocol: as §1, §2

[2] = system: human HepG2 hepatocarcinoma cells; experiment: MTT cell growth assay, HepG2; conditions: 72 h, 0.1–10 μM
Protocol: Cell growth inhibitory activity of compounds 3d and 3k was also investigated on human HepG2 hepatocarcinoma cells, a cell line not included in the NCI panel and of interest in the drug discovery because provided with a very active microsomal system for detoxification of xenobiotics. Monolayer cultures treated for 72 h with 0.1–10 μM concentrations of the compounds were examined by 3-(4,5-dimethylthiazol-2-yl)-2,5-diphenyltetrazolium bromide (MTT) assay for cell growth.
Human cell lines of hepatoma HepG2 and Chang liver were purchased from American Type Culture Collection, Rockville, MD, USA. Cells were grown in RPMI supplemented with 2 mM L-glutamine, 10% FBS, 100 U/mL penicillin, 100 μg/mL streptomycin and 5 μg/mL gentamicin. HepG2 culture medium also contained 1.0 mM sodium pyruvate. Cells were maintained in log phase by seeding twice a week at a density of 3 × 10^8 cells/L in humidified 5% CO2 atmosphere, at 37 °C. […] Cytotoxic activity of the compounds was determined by the MTT quantitative colorimetric assay based on the reduction of the 3-(4,5-dimethyl-2-thiazolyl)-2,5-diphenyl-2H-tetrazolium bromide (MTT) into purple formazan by mitochondrial dehydrogenases of living cells. […] The absorbance at 540 nm was measured in a microplate reader (Bio-RAD, Hercules, CA, USA). […]

A498 = experiment: NCI-60 in vitro tumor cell growth inhibition, A498 (renal cancer); conditions: Homo sapiens, five concentration levels
Protocol: as §1, §2

MDA-MB-468 = experiment: NCI-60 in vitro tumor cell growth inhibition, MDA-MB-468 (breast cancer); conditions: Homo sapiens, five concentration levels
Protocol: as §1, §2

Structure (SMILES) | GI50 (K-562) [nM] | GI50 (HL-60(TB)) [nM] | GI50 (HT29) [nM] | GI50 (HCC-2998) [nM] | GI50 (KM12) [nM] | GI50 (SN12C) [nM] | GI50 (SF-268) [nM] | GI50 (OVCAR-3) [nM] | GI50 (SF-539) [nM] | viability of normal immortalized human liver cells (Chang) [1] | GI50 (MCF7) [nM] | GI50 (U251) [nM] | GI50 (SW-620) [nM] | GI50 (UO-31) [nM] | GI50 (RXF393) [nM] | GI50 (ACHN) [nM] | GI50 [2] [nM] | GI50 (A498) [nM] | GI50 (MDA-MB-468) [nM]
Cn1cc(-c2csc(-c3cn(C)c4ncccc34)n2)c2ccccc21 [Compound 3d, 1-Methyl-3-[4-(1-methyl-1H-indol-3-yl)-1,3-thiazol-2-yl]-1H-pyrrolo[2,3-b]pyridine] | 70 | 290 | 250 | 1130 | 210 | 12100 | 2440 | 100 | 180 | did not affect normal immortalized human liver cells (Chang); also recorded: did not substantially impaired viability | 330 | 410 | 220 | 900 | 330 | 720 | 1690 | 500 | 280
Cn1cc(-c2nc(-c3c[nH]c4ccccc34)cs2)c2cccnc21 [Compound 3k, 3-[4-(1H-Indol-3-yl)-1,3-thiazol-2-yl]-1-methyl-1H-pyrrolo[2,3-b]pyridine] | 120 | 320 | 190 | 1180 | 400 | 5480 | 940 | 250 | 250 | did not affect normal immortalized human liver cells (Chang); also recorded: did not substantially impaired viability | 370 | 430 | 300 | 690 | 520 | 510 | 210 | 370 | 230
